{"source": "patent US12611446B2", "about": "“Cannabinoid product for improving musculoskeletal health” (Lonza Greenwood LLC, priority 2019, dated 2026)", "key": {"[1]": {"tested_on": "Sodium Monoiodoacetate Induced Osteoarthritis(OA) in Rats", "experiment": "Effect of UC-II undenatured Type II collagen and cannabidiol on sodium monoiodoacetate (MIA) induced osteoarthritis in rats: metabolic, inflammatory and oxidative stress markers", "format": "in vivo", "settings": "MIA-induced OA male Wistar rats, 30 days; for COMP (cartilage oligomeric matrix protein) / CRP (c-reactive protein) / IL-1β (interleukin-1β) / IL-6 (interleukin-6) / PGE2 (prostaglandin E2) / TNF-α (tumor necrosis factor α): serum", "protocol": "OA was induced in male Wistar rats by intra-articular injection of sodium monoiodoacetate (MIA: 1 mg/kg). Treatment was started a week before injection with MIA and lasted 30 days. Biomarker testing was conducted prior to 24 days post MIA."}, "[2]": {"tested_on": "Sodium Monoiodoacetate Induced Osteoarthritis(OA) in Rats", "experiment": "Effect of UC-II undenatured Type II collagen and cannabigerol on sodium monoiodoacetate (MIA) induced osteoarthritis in rats: metabolic, inflammatory and oxidative stress markers", "format": "in vivo", "settings": "MIA-induced OA female rats, 30 days", "protocol": "[…] Treatment was started a week before injection with MIA and lasted 30 days. Biomarker testing was conducted prior to 24 days post MIA.\nThe dosage levels were the same."}, "[3]": {"settings": "CBD1 = CBD 1.62 mg/kg (combination: + UC-II 4 mg/kg)"}, "[4]": {"settings": "CBD2 = CBD 3.24 mg/kg (combination: + UC-II 4 mg/kg)"}, "[5]": {"settings": "CBGI = CBG 1.62 mg/kg (combination: + UC-II 4 mg/kg)"}, "[6]": {"settings": "CBGII = CBG 3.24 mg/kg (combination: + UC-II 4 mg/kg)"}}, "note": "Marks after values point to notes of the source that are not given here.", "data": [{"molecule": "C=C(C)[C@@H]1CCC(C)=C[C@H]1c1c(O)cc(CCCCC)cc1O", "note": "[CBD, cannabidiol]", "values": [{"measurement": "ALB (Albumin)", "setting": "[1]; [3]", "result": "3.59 ± 0.13^ab g/dL"}, {"measurement": "ALP (Alkaline phosphatase)", "setting": "[1]; [3]", "result": "137.14 ± 8.95^a U/L"}, {"measurement": "ALT (Alanine aminotransferase)", "setting": "[1]; [3]", "result": "69.14 ± 7.63", "unit": "U/L"}, {"measurement": "AST (Aspartate aminotransferase)", "setting": "[1]; [3]", "result": "108.43 ± 13.4", "unit": "U/L"}, {"measurement": "BUN (Blood Urine Nitrogen)", "setting": "[1]; [3]", "result": "23.57 ± 2.27", "unit": "mg/dL"}, {"measurement": "CAT (catalase)", "setting": "[1]; [3]", "result": "125.79 ± 7.41^d U/mL"}, {"measurement": "CR (Creatine)", "setting": "[1]; [3]", "result": "0.45 ± 0.11", "unit": "mg/dL"}, {"measurement": "GLOB (Globulin)", "setting": "[1]; [3]", "result": "3.16 ± 0.05^b g/dL"}, {"measurement": "GLU (Glucose)", "setting": "[1]; [3]", "result": "112.43 ± 11.52", "unit": "mg/dL"}, {"measurement": "MDA (malondialdehyde)", "setting": "[1]; [3]", "result": "1.28 ± 0.08^b nmol/mL"}, {"measurement": "OCN (osteocalcin)", "setting": "[1]; [3]", "result": "28.20 ± 1.74^e μg/mL"}, {"measurement": "SOD (superoxide dismutase)", "setting": "[1]; [3]", "result": "50.00 ± 1.82^de U/mL"}, {"measurement": "TBIL (Total Bilirubin)", "setting": "[1]; [3]", "result": "0.20 ± 0.01", "unit": "mg/dL"}, {"measurement": "TP (Total Protein)", "setting": "[1]; [3]", "result": "6.71 ± 0.17", "unit": "g/dL"}, {"measurement": "ALB (Albumin)", "setting": "[1]; [4]", "result": "3.57 ± 0.14^ab g/dL"}, {"measurement": "ALP (Alkaline phosphatase)", "setting": "[1]; [4]", "result": "140.43 ± 8.40^a U/L"}, {"measurement": "ALT (Alanine aminotransferase)", "setting": "[1]; [4]", "result": "70.29 ± 5.56", "unit": "U/L"}, {"measurement": "AST (Aspartate aminotransferase)", "setting": "[1]; [4]", "result": "110.29 ± 12.58", "unit": "U/L"}, {"measurement": "BUN (Blood Urine Nitrogen)", "setting": "[1]; [4]", "result": "24.23 ± 1.27", "unit": "mg/dL"}, {"measurement": "CAT (catalase)", "setting": "[1]; [4]", "result": "139.36 ± 3.44", "unit": "b^c U/mL"}, {"measurement": "CR (Creatine)", "setting": "[1]; [4]", "result": "0.45 ± 0.08", "unit": "mg/dL"}, {"measurement": "GLOB (Globulin)", "setting": "[1]; [4]", "result": "3.27 ± 0.23^ab g/dL"}, {"measurement": "GLU (Glucose)", "setting": "[1]; [4]", "result": "109.86 ± 5.81", "unit": "mg/dL"}, {"measurement": "GSH-Px (glutathione peroxidase)", "setting": "[1]; [4]", "result": "85.31 ± 3.85^bc U/mL"}, {"measurement": "MDA (malondialdehyde)", "setting": "[1]; [4]", "result": "1.24 ± 0.16^b nmol/mL"}, {"measurement": "OCN (osteocalcin)", "setting": "[1]; [4]", "result": "33.35 ± 3.18^d μg/mL"}, {"measurement": "SOD (superoxide dismutase)", "setting": "[1]; [4]", "result": "58.04 ± 2.76^c U/mL"}, {"measurement": "TBIL (Total Bilirubin)", "setting": "[1]; [4]", "result": "0.20 ± 0.01", "unit": "mg/dL"}, {"measurement": "TP (Total Protein)", "setting": "[1]; [4]", "result": "6.87 ± 0.37", "unit": "g/dL"}, {"measurement": "COMP (cartilage oligomeric matrix protein)", "setting": "[1]; [3]", "result": "21.22 ± 1.77^c ng/mL"}, {"measurement": "CRP (c-reactive protein)", "setting": "[1]; [3]", "result": "6.39 ± 1.06^c mg/L"}, {"measurement": "IL-1β (interleukin-1β)", "setting": "[1]; [3]", "result": "34.92 ± 2.23^bc pg/mL"}, {"measurement": "IL-6 (interleukin-6)", "setting": "[1]; [3]", "result": "30.83 ± 2.17^c pg/mL"}, {"measurement": "PGE2 (prostaglandin E2)", "setting": "[1]; [3]", "result": "504.41 ± 37.35^bc pg/mL"}, {"measurement": "TNF-α (tumor necrosis factor α)", "setting": "[1]; [3]", "result": "46.58 ± 0.87^c pg/mL"}, {"measurement": "COMP (cartilage oligomeric matrix protein)", "setting": "[1]; [4]", "result": "16.32 ± 1.91^d ng/mL"}, {"measurement": "CRP (c-reactive protein)", "setting": "[1]; [4]", "result": "3.95 ± 0.20^d mg/L"}, {"measurement": "IL-1β (interleukin-1β)", "setting": "[1]; [4]", "result": "31.94 ± 1.91^cd pg/mL"}, {"measurement": "IL-6 (interleukin-6)", "setting": "[1]; [4]", "result": "28.65 ± 2.17^c pg/mL"}, {"measurement": "PGE2 (prostaglandin E2)", "setting": "[1]; [4]", "result": "469.24 ± 11.42^cd pg/mL"}, {"measurement": "TNF-α (tumor necrosis factor α)", "setting": "[1]; [4]", "result": "41.97 ± 1.31^c pg/mL"}]}, {"molecule": "CCCCCc1cc(O)c(C/C=C(\\C)CCC=C(C)C)c(O)c1", "note": "[CBG, cannabigerol]", "values": [{"measurement": "CAT (catalase)", "setting": "[2]; [5]", "result": "136.44 ± 4.10^bc U/mL"}, {"measurement": "COMP (cartilage oligometrix matrix protein)", "setting": "[2]; [5]", "result": "21.68 ± 2.13^b ng/mL"}, {"measurement": "CRP (c-reactive protein)", "setting": "[2]; [5]", "result": "7.04 ± 0.85^b mg/L"}, {"measurement": "GSH-Px (glutathione peroxidase)", "setting": "[2]; [5]", "result": "75.87 ± 4.87^bc U/mL"}, {"measurement": "IL-1β (interleukin-1β)", "setting": "[2]; [5]", "result": "35.08 ± 3.41^b pg/mL"}, {"measurement": "IL-6 (interleukin-6)", "setting": "[2]; [5]", "result": "33.14 ± 4.07^b pg/mL"}, {"measurement": "IL-10 (interleukin-10)", "setting": "[2]; [5]", "result": "47.42 ± 5.77^d pg/mL"}, {"measurement": "MDA (malondialdehyde)", "setting": "[2]; [5]", "result": "1.57 ± 0.07^b nmol/mL"}, {"measurement": "Osteocalcin", "setting": "[2]; [5]", "result": "28.15 ± 1.34^ef μg/mL"}, {"measurement": "PGE2 (prostaglandin E2)", "setting": "[2]; [5]", "result": "483 ± 36.86^b pg/mL"}, {"measurement": "SOD (superoxide dismutase)", "setting": "[2]; [5]", "result": "49.13 ± 5.76^bc U/mL"}, {"measurement": "TNF-α (tumor necrosis factor α)", "setting": "[2]; [5]", "result": "56.95 ± 5.61^b pg/mL"}, {"measurement": "CAT (catalase)", "setting": "[2]; [6]", "result": "138.82 ± 2.71^b U/mL"}, {"measurement": "COMP (cartilage oligometrix matrix protein)", "setting": "[2]; [6]", "result": "20.42 ± 2.16^b ng/mL"}, {"measurement": "CRP (c-reactive protein)", "setting": "[2]; [6]", "result": "6.45 ± 0.82^bc mg/L"}, {"measurement": "GSH-Px (glutathione peroxidase)", "setting": "[2]; [6]", "result": "77.29 ± 5.83^b U/mL"}, {"measurement": "IL-1β (interleukin-1β)", "setting": "[2]; [6]", "result": "34.05 ± 2.80^b pg/mL"}, {"measurement": "IL-6 (interleukin-6)", "setting": "[2]; [6]", "result": "32.41 ± 3.81^b pg/mL"}, {"measurement": "IL-10 (interleukin-10)", "setting": "[2]; [6]", "result": "46.17 ± 4.91^d pg/mL"}, {"measurement": "MDA (malondialdehyde)", "setting": "[2]; [6]", "result": "1.60 ± 0.07^b nmol/mL"}, {"measurement": "Osteocalcin", "setting": "[2]; [6]", "result": "30.82 ± 1.35^de μg/mL"}, {"measurement": "PGE2 (prostaglandin E2)", "setting": "[2]; [6]", "result": "473.71 ± 40.89^b pg/mL"}, {"measurement": "SOD (superoxide dismutase)", "setting": "[2]; [6]", "result": "51.13 ± 3.75^bc U/mL"}, {"measurement": "TNF-α (tumor necrosis factor α)", "setting": "[2]; [6]", "result": "54.32 ± 5.01^b pg/mL"}]}]}
